Reference: patent publication US20080090805A1, “CB-1 MODULATING COMPOUNDS AND THEIR USE” (ACADIA PHARMACEUTICALS INC., priority 2005, published 2008)

Experiments:
[1] = Clearance study, liver microsomes (human); conditions: pH 7.4
[2] = Clearance study, liver microsomes (rats); conditions: rat, pH 7.4

Structure (SMILES) | microsomal CLint at 1 μM [1] [µL/min/mg] | microsomal CLint at 1 μM [2] [µL/min/mg]
O=C(NCc1ccc(F)cc1)c1ccc2c(c1)N=C(c1ccccc1)c1ccccc1S2 [drawing 1787] | 73 | 242
Cc1ccc(CNC(=O)c2ccc3c(c2)N=C(c2ccc(Cl)s2)c2ccccc2S3)o1 [drawing 1697] | 30 | 124
O=C(NCc1cccc(Cl)c1)c1ccc2c(c1)N=C(c1ccc(F)cc1)c1ccccc1[S+]2[O-] (stereo not shown) [drawing 1790] | 24 | 76
Cc1ccc(N2CCN(C(=O)c3ccc4c(c3)N=C(c3ccc(Cl)cc3)c3ccccc3S4)CC2)c(C)c1 [drawing 1808] | 37 | 39
Cc1csc(CNC(=O)c2ccc3c(c2)N=C(c2cccc(C)n2)c2ccccc2S3)c1 [drawing 1727] | 113 | 725
CCCCNC(=O)c1ccc2c(c1)N=C(c1ccc(Cl)s1)c1ccc(Cl)cc1S2 [drawing 1694] | 15 | 55
O=C(NCCc1ccc(Cl)cc1)c1ccc2c(c1)N=C(c1ccc(F)cc1)c1ccccc1S2 [drawing 1799] | 100 | 208
O=C(NCc1cccc(Cl)c1)c1ccc2c(c1)N=C(N1CCC(F)CC1)c1ccccc1S2 [drawing 1714] | 96 | 477
CCCCNC(=O)c1ccc2c(c1)N=C(c1ccc(Cl)s1)c1cc(F)ccc1S2 [drawing 1710] | 41 | 111
CCCCNC(=O)c1ccc2c(c1)N=C(c1ccc(Cl)cc1)c1ccc(F)cc1S2 [drawing 1663] | 9 | 79
O=C(NCCCC(F)(F)F)c1ccc2c(c1)N=C(c1ccc(Cl)s1)c1ccccc1S2 [drawing 1655] | 31 | 136
O=C(NCCc1ccc(Cl)cc1)c1ccc2c(c1)N=C(c1ccc(Cl)cc1)c1ccccc1S2 [drawing 1807] | 54 | 122
CCN(CCNC(=O)c1ccc2c(c1)N=C(c1ccc(Cl)cc1)c1ccccc1S2)c1ccccc1 [drawing 1698] | 157 | 210
O=C(NCc1cccc(Cl)c1)c1ccc2c(c1)N=C(C1CCCCC1)c1ccccc1S2 [drawing 1777] | 70 | 458
CC(CNC(=O)c1ccc2c(c1)N=C(c1ccc(Cl)cc1)c1cc(F)ccc1S2)c1ccccc1 (stereo not shown) [drawing 1716] | 39 | 165
COc1cccc(C2=Nc3cc(C(=O)NCCCC(F)(F)F)ccc3Sc3ccccc32)n1 [drawing 1667] | 24 | 144
CCCCNC(=O)c1ccc2c(c1)N=C(c1ccc(Cl)cn1)c1cc(F)ccc1S2 [drawing 1748] | 57 | 131
O=C(NCc1ccc(F)cc1)c1ccc2c(c1)N=C(N1CCCCC1)c1ccccc1S2 [drawing 1738] | 255 | 735
O=C(NNCC(F)(F)F)c1ccc2c(c1)N=C(c1ccc(Cl)cc1)c1ccccc1S2 [drawing 1696] | 21 | 39
CC(CNC(=O)c1ccc2c(c1)N=C(c1ccc(Cl)cc1)c1ccccc1S2)c1ccccc1 (stereo not shown) [drawing 1743] | 62 | 179
CCCCNC(=O)c1ccc2c(c1)N=C(c1ccc(Cl)s1)c1cc(Cl)ccc1S2 [drawing 1678] | 22 | 63
CCOC(=O)N1CCC(NC(=O)c2ccc3c(c2)N=C(c2ccc(Cl)cc2)c2ccccc2S3)CC1 [drawing 1726] | 88 | 89
O=C(NCc1ccc(Cl)cc1Cl)c1ccc2c(c1)N=C(c1ccc(Cl)cc1)c1ccccc1S2 [drawing 1796] | 1 | 5
O=C(NCCCC(F)(F)F)c1ccc2c(c1)N=C(c1ccc(Cl)cc1F)c1ccccc1S2 [drawing 1653] | 14 | 105
O=C(NCc1cccc(Cl)c1)c1ccc2c(c1)N=C(c1cccc(Cl)c1)c1cc(F)ccc1S2 [drawing 1805] | 10 | 61
COc1ccc(C2=Nc3cc(C(=O)NCCC(C)C)ccc3Sc3ccccc32)cc1 [drawing 1785] | 123 | 177
CCCCNC(=O)c1ccc2c(c1)N=C(c1cccc(Cl)c1)c1cc(F)ccc1S2 [drawing 1682] | 16 | 63
CC(C)CNC(=O)c1ccc2c(c1)N=C(c1ccsc1)c1ccccc1S2 [drawing 1753] | 546 | 427
O=C(NC1CCC(F)(F)CC1)c1ccc2c(c1)N=C(c1ccc(Cl)s1)c1ccccc1S2 [drawing 1699] | 20 | 158
